Measured values: BindingDB's records for doi:10.1111/j.1747-0285.2008.00719.x (The Burnham Institute For Medical Research, 2008)

molecular target: T1, Phosducin-like protein 3 (Homo sapiens, UniProt Q9H2J4); assay: NMR Screening Assay; settings: pH 7.5; 27 °C
T1 sequence (Q9H2J4 whole entry): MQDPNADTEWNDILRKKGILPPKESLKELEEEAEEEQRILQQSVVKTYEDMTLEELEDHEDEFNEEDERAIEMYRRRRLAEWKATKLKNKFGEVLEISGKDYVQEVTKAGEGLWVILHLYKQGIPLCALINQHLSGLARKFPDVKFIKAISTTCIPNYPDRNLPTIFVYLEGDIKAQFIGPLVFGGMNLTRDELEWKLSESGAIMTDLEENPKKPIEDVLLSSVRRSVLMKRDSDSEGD
Excerpt: NMR-based screen of potential binders by using 1D Aliphatic 1H NMR experiment to investigate the potential role of the c-VIAF as a possible drug target viral infections validation and functional studies.

| Compound | Kd |
| --- | --- |
| CCOC(=O)Cn1cnc2sc3c(c2c1=O)CCC3 [2-(1-keto-7,8-dihydro-6H-cyclopenta[2,3]thieno[2,4-d]pyrimidin-2-yl)acetic acid ethyl ester] | 227 µM |
| CCOC(=O)C(C)n1cnc2sc3c(c2c1=O)CCCC3 (configuration not stated) [BI-86-E12] | 76 µM |
| CCOC(=O)C(CC)n1cnc2sc3c(c2c1=O)CCCC3 (configuration not stated) [BI-86-E8] | > 1000 µM |

The next lines start with the values.

| Kd | Compound |
| --- | --- |
| 16.5 µM | CCOC(=O)Cn1cnc2sc3c(c2c1=O)CCCC3 [BI-86-E6] |
| > 1000 µM | O=c1[nH]nnc2sc3c(c12)CCCC3 [BI-86-F3] |
| > 1000 µM | O=C(Cn1cnc2sc3c(c2c1=O)CCCC3)OCc1ccccc1 [BI-86-F2] |
| > 1000 µM | CC(C)COC(=O)Cn1cnc2sc3c(c2c1=O)CCCC3 [BI-86-E11] |
